The results in this text go back to US8039586B1, “Cerebral organic anion transporter and its gene” (J-Pharma Co., Ltd., priority 1998, dated 2011).

Where two headings read alike, the source gives them in different places.

The target of one series is T1, rat OAT3 (rk1411) (Rattus norvegicus, UniProt Q9R1U7).
T1 construct: cRNA (RNA complementary to cDNA) was prepared in vitro from the plasmid carrying the clone (rk1411); expressed in transfected cells; host or cells: Xenopus oocytes injected with rk1411 cRNA
T1 sequence (Q9R1U7 1-536): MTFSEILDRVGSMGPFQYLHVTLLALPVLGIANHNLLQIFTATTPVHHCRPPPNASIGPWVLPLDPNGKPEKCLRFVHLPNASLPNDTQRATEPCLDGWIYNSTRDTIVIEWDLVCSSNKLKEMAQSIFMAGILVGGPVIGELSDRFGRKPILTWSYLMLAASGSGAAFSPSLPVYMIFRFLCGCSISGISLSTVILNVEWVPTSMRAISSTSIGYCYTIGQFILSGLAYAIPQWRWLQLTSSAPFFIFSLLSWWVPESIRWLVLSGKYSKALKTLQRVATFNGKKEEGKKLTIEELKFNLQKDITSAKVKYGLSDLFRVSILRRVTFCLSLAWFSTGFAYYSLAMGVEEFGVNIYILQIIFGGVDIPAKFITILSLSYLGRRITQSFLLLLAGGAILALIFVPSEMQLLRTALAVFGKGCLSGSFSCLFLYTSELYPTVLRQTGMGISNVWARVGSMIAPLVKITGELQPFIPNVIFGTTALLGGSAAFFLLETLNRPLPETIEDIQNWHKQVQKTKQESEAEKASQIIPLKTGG
The series can be described thus: Michaelis-Menten dynamic test of organic anion transport with rk1411 in oocyte. In kind it is cell-based. The note with it: transport by rk1411 (rat OAT3) in Xenopus oocyte, FIG. 2, read-out: Km. From the text: The organic anion transport with rk1411 was subjected to the Michaelis-Menten dynamic test.

Series [1] has as its target T2, hOAT3 (Homo sapiens, UniProt Q8TCC7).
T2 construct: cRNA (RNA complementary to cDNA) was prepared in vitro from the plasmid comprising the hOAT3 recovered above; expressed in transfected cells; host or cells: Xenopus oocytes injected with hOAT3 cRNA
T2 sequence (Q8TCC7 1-542 K271E/D366H): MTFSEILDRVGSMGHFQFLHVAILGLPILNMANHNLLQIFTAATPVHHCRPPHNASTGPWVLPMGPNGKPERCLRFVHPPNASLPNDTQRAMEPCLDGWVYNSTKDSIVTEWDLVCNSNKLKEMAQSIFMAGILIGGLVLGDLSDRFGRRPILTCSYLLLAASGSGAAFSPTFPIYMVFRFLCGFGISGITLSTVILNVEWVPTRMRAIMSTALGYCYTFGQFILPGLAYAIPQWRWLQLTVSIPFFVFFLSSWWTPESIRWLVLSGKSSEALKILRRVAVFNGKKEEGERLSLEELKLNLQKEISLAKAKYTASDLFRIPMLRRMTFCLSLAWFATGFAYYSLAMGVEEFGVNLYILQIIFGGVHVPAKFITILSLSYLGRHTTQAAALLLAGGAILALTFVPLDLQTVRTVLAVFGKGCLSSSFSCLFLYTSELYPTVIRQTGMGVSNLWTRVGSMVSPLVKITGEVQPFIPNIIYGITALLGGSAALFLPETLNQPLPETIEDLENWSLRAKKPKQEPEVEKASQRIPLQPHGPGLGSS
The series is described as follows: Uptake of radiolabeled compounds by Xenopus oocyte injected with hOAT3 cRNA. In kind it is cell-based. The note with it: substrate 50 nM; one hour; versus control oocyte. How it is done: By using T7 RNA polymerase, cRNA (RNA complementary to cDNA) was prepared in vitro from the plasmid comprising the hOAT3 recovered above by the method by Sekine, et al. (see Sekine, T., et al. J. Biol. Chem., Vol. 272, pp. 18526-9, 1997).
According to the already reported method of Sekine, et al. (Sekine, T., et al. J. Biol. Chem., Vol. 272, pp. 18526-9, 1997), the resulting hOAT3 cRNA was injected in the Xenopus oocyte; the oocyte was subjected to an uptake test with various radiolabeled organic anions and organic cations. The control oocyte cell (oocyte cell with no injection of hOAT3 cRNA) and the oocyte cell injected with hOAT3 cRNA were cultured in a buffer containing the following radiolabels for one hour, to assay the uptake of the radiolabels into the oocytes.
In each figure, open column expresses the case of the control oocyte used; and closed column expresses the case of the oocyte injected with hOAT3 cRNA.

Series [2] has as its target T3, hOAT3 (Homo sapiens, UniProt Q8TCC7, D366H/K271E).
T3 sequence (Q8TCC7 1-542 K271E/D366H): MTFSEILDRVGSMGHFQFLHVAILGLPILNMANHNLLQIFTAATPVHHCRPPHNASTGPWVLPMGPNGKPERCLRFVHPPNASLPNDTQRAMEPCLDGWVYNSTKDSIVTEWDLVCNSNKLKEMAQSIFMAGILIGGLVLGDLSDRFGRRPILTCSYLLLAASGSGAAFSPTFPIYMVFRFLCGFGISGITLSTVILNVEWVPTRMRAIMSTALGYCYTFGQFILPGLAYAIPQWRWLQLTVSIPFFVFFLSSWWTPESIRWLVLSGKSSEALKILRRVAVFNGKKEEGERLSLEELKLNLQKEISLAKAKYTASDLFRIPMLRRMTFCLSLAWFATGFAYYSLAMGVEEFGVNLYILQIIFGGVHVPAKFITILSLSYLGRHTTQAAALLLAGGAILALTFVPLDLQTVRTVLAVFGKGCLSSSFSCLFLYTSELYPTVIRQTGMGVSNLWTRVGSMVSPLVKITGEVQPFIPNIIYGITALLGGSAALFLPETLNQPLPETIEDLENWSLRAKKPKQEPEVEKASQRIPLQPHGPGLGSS
To be noted: transport by hOAT3 in Xenopus oocyte. From the text:
Then, the hOAT3 transport of organic anions was examined at the Michaelis-Menten kinetic test.

Series [3] deals with T3, hOAT3. The series is described as follows: Inhibition of 3H-estrone sulfate uptake in oocyte injected with hOAT3 cRNA. In kind it is cell-based. Further details: cRNA (RNA complementary to cDNA) was prepared in vitro from the plasmid comprising the hOAT3 recovered above; expressed in transfected cells; host or cells: Xenopus oocytes injected with hOAT3 cRNA. The note with it: 50 nM 3H-estrone sulfate; non-radiolabeled compound at 500 μM or the concentration shown in FIG. 19; one hour.

Substrate in series [4]: CN(Cc1cnc2nc(N)nc(N)c2n1)c1ccc(C(=O)N[C@@H](CCC(=O)O)C(=O)O)cc1
The series is described as follows: cells, lysate or membranes. The note with it: other: transport by hOAT3 in Xenopus oocyte.

Take estrone sulfate: the figures for the Km at rat OAT3 (rk1411) (listed as Estrone sulfate), on rat OAT3 (rk1411) and on hOAT3 [2] were 2.34 ± 0.2 µM, 2.3 µM and 3.08 µM, respectively. Besides, the “uptake of radiolabeled compound by oocyte with hOAT3 expression” value at hOAT3 [1] is “takes up”. For the same molecule, the “inhibition of the transport of 3H-estrone sulfate with hOAT3” value on hOAT3 [3] is given as “significantly inhibited”.

B1: hOAT3 (Homo sapiens; D366H/K271E) (protein)
chain: MTFSEILDRVGSMGHFQFLHVAILGLPILNMANHNLLQIFTAATPVHHCRPPHNASTGPWVLPMGPNGKPERCLRFVHPPNASLPNDTQRAMEPCLDGWVYNSTKDSIVTEWDLVCNSNKLKEMAQSIFMAGILIGGLVLGDLSDRFGRRPILTCSYLLLAASGSGAAFSPTFPIYMVFRFLCGFGISGITLSTVILNVEWVPTRMRAIMSTALGYCYTFGQFILPGLAYAIPQWRWLQLTVSIPFFVFFLSSWWTPESIRWLVLSGKSSEALKILRRVAVFNGKKEEGERLSLEELKLNLQKEISLAKAKYTASDLFRIPMLRRMTFCLSLAWFATGFAYYSLAMGVEEFGVNLYILQIIFGGVHVPAKFITILSLSYLGRHTTQAAALLLAGGAILALTFVPLDLQTVRTVLAVFGKGCLSSSFSCLFLYTSELYPTVIRQTGMGVSNLWTRVGSMVSPLVKITGEVQPFIPNIIYGITALLGGSAALFLPETLNQPLPETIEDLENWSLRAKKPKQEPEVEKASQRIPLQPHGPGLGSS
On to B1, for which, in series [4], the Km amounted to 2.22 µM.
